# Assay results as given in patent US9926267B2, “Covalent inhibitors of K-Ras G12C” (Araxes Pharma LLC, priority 2013, dated 2018).
# Target: T1, KRAS G12C 1-169, his-tagged protein, GDP-loaded (Homo sapiens, UniProt P01116, G12C)
# T1 construct: KRAS G12C 1-169, his-tagged protein, GDP-loaded
# Experiment: Biochemical assay: covalent binding to KRAS G12C, measured by mass spectrometry
# Procedure: Test compounds were prepared as 10 mM stock solutions in DMSO (Fisher cat#BP-231-100). KRAS G12C 1-169, his-tagged protein, GDP-loaded was diluted to 2 μm in buffer (20 mM Hepes, 150 mM NaCl, 1 mM MgCl2). Compounds were tested for activity as follows:
# Compounds were diluted to 50× final test concentration in DMSO in 96-well storage plates. Compound stock solutions were vortexed before use and observed carefully for any sign of precipitation. Dilutions were as follow: • For 100 μM final compound concentration, compounds were diluted to 5000 μM (5 μl 10 mM compound stock+5 μl DMSO and mixed well by pipetting. • For 30 μM final compound concentration, compounds were diluted to 1500 μM (3 μl 10 mM compound stock+17 μl DMSO) and mixed well by pipetting. • For […] final compound concentration, compounds were diluted to 500 μM (2 μl 10 mM compound stock+38 μl DMSO) and mixed well by pipetting. 49 μl of the stock protein solution was added to each well of a 96-well PCR plate (Fisher cat#1423027). 1 μl of the diluted 50× compounds were added to appropriate wells in the PCR plate using 12-channel pipettor. Reactions were mixed carefully and thoroughly by pipetting up/down with a 200 μl multi-channel pipettor. The plate was sealed well with aluminum plate seal, and stored in a drawer at room temperature for 2 hrs or 24 hrs. 5 μl of 2% formic acid (Fisher cat#A117) in DI H2O was then added to each well followed by mixing with a pipette. The plate was then resealed with aluminum seal and stored on dry ice until analyzed as described below.
# The above described assays were analyzed by mass spectrometry according to the following procedure:
# The MS instrument is set to positive polarity, 2 GHz resolution, and low mass (1700) mode and allowed to equilibrate for 30 minutes. The instrument is then calibrated, switched to acquisition mode and the appropriate method loaded.
# After another 30 minute equilibration time, a blank batch (i.e., buffer) is run to ensure equipment is operating properly. The samples are thawed at 37° C. for 10 minutes, briefly centrifuged, and transfer to the bench top. Wells A1 and H12 are spiked with 1 uL 500 uM internal standard peptide, and the plates centrifuged at 2000×g for 5 minutes. The method is then run and masses of each individual well recorded.
# The masses (for which integration data is desired) for each well are pasted into the platemap and exported from the analysis. Masses for the internal standards are exported as well. The data at 50 ppm is extracted for the +19 charge state, and identity of well A1 is assigned using the internal standard spike and integrated. Peak data is exported as a TOF list and the above steps are repeated individually, for the +20, 21, 22, 23, 24, and charge states.
# [1] = Binding activity determined at 24 hrs, Table 8a
# [2] = Binding activity determined at 24 hrs, Table 7a
# [3] = Binding activity determined at 2 hrs, Table 8b
# T1 sequence (P01116 1-169 isoform P01116-2 G12C): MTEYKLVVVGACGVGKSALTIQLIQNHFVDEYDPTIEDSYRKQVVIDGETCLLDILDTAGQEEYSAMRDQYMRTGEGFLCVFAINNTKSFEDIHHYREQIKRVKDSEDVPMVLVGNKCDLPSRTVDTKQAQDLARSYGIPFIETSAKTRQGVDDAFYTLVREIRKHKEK
Compound,Binding % [1],other results
"C=CC(=O)N1CCN(C(=O)c2csc(-c3ccccc3Cl)n2)CC1 [VI-18, 1-(4-(2-(2-chlorophenyl)thiazole-4-carbonyl)piperazin-1-yl)prop-2-en-1-one]",+ (+ indicates binding activity from 5% to 10%),
"C=CC(=O)N1CCN(C(=O)c2cc(-c3ccccc3Cl)c[nH]2)CC1 [VI-21, 1-(4-(4-(2-chlorophenyl)-1H-pyrrole-2-carbonyl)piperazin-1-yl)prop-2-en-1-one]",++ (++ indicates binding activity greater than 10% and up to 20%),
"C=CC(=O)N1CCN(C(=O)c2cc(Br)c(Cl)cc2O)CC1 [VI-9, 1-(4-(5-bromo-4-chloro-2-hydroxybenzoyl)piperazin-1-yl)prop-2-en-1-one]",+ (+ indicates binding activity from 5% to 10%),
"C=CC(=O)N1CCN(C2CCN(C(=O)CNc3cc(Cl)c(Cl)cc3O)C2)CC1 (stereo not shown) [Compound V-4, 1-(4-(1-(2-(4,5-dichloro-2-hydroxyphenyl-amino)acetyl)pyrrolidin-3-yl)piperazin-1-yl)prop-2-en-1-one]",,Binding % [2]: +++ (+++ indicates binding activity greater than 25% and up to 50%)
"C=CS(=O)(=O)NC1CCN(C(=O)c2ccc(Cl)c(Cl)c2)CC1 [VI-33, N-(1-(3,4-dichlorobenzoyl)piperidin-4-yl)ethenesulfonamide]",+ (+ indicates binding activity from 5% to 10%),
"C=CC(=O)N1CCN(C(=O)c2cc(Cl)c(-c3ccccc3Cl)cc2O)CC1 [VI-41, 1-(4-(2,2′-dichloro-5-hydroxybiphenyl-carbonyl)piperazin-1-yl)prop-2-en-1-one]",,Binding % [3]: + (+ indicates binding activity from 5% to 20%)
"C=CC(=O)N1CCN(C(=O)c2cc(-c3ccc(Cl)cc3)c(Cl)cc2O)CC1C#N (stereo not shown) [VI-37, 1-Acryloyl-4-(4′,6-dichloro-4-hydroxy-[1,1′-biphenyl]-3-carbonyl)piperazine-2-carbonitrile]",,Binding % [3]: ++ (++ indicates binding activity greater than 20%)
"C=CC(=O)N1CC(N2CCN(CCNc3cc(Cl)c(Cl)cc3O)CC2)C1 [Compound V-15, 1-(3-(4-(2-(4,5-dichloro-2-hydroxyphenyl-amino)ethyl)piperazin-1-yl)azetidin-1-yl)prop-2-en-1-one]",,Binding % [2]: + (+ indicates binding activity from 5% to 15%)
"C=CS(=O)(=O)N[C@H]1CCCN(C(=O)c2ccc(Cl)c(Cl)c2)C1 [VI-35, (S)-N-(1-(3,4-dichlorobenzoyl)piperidin-3-yl)ethenesulfonamide]",++ (++ indicates binding activity greater than 10% and up to 20%),
"C=CC(=O)N1CCN(C(=O)c2cc(-c3ccccc3Cl)c(Cl)cc2OC)CC1 [VI-1, 1-(4-(2′,6-dichloro-4-methoxybiphenyl-carbonyl)piperazin-1-yl)prop-2-en-1-one]",+ (+ indicates binding activity from 5% to 10%),
"C=CC(=O)NC1CN(C(=O)c2cc(-c3ccccc3Cl)[nH]n2)C1 [VI-15, N-(1-(3-(2-chlorophenyl)-1H-pyrazole-5-carbonyl)azetidin-3-yl)acrylamide]",+ (+ indicates binding activity from 5% to 10%),
"C=CS(=O)(=O)N1CCN(C(=O)c2ccc(Cl)c(Cl)c2)CC1 [VI-34, (3,4-dichlorophenyl)(4-(vinylsulfonyl)piperazin-1-yl)methanone]",+++ (+++ indicates binding activity greater than 20% and up to 30%),
"C=CC(=O)N1CCN(C(=O)c2cc(-c3cc(Cl)ccc3Cl)c(Cl)cc2OC)CC1CO (stereo not shown) [VI-6, 1-(2-(hydroxymethyl)-4-(2′,5′,6-trichloro-4-methoxybiphenyl-carbonyl)piperazin-1-yl)prop-2-en-1-one]",++ (++ indicates binding activity greater than 10% and up to 20%),
